Results from ChEMBL document CHEMBL4673207, “Recent advances in the discovery of potent and selective HDAC6 inhibitors” (Eur J Med Chem, 2018).
Blank lines part the entries; values can stand above or below the molecule they belong to.

Legend:
[1] = target: T1, Protein deacetylase HDAC6 (Homo sapiens, UniProt Q9UBN7); assay: Inhibition of human HDAC6 using p53 fluorogenic peptide (379 to 382 residues) RHKKAc as substrate by fluorescence-based assay
T1 sequence (Q9UBN7 whole entry): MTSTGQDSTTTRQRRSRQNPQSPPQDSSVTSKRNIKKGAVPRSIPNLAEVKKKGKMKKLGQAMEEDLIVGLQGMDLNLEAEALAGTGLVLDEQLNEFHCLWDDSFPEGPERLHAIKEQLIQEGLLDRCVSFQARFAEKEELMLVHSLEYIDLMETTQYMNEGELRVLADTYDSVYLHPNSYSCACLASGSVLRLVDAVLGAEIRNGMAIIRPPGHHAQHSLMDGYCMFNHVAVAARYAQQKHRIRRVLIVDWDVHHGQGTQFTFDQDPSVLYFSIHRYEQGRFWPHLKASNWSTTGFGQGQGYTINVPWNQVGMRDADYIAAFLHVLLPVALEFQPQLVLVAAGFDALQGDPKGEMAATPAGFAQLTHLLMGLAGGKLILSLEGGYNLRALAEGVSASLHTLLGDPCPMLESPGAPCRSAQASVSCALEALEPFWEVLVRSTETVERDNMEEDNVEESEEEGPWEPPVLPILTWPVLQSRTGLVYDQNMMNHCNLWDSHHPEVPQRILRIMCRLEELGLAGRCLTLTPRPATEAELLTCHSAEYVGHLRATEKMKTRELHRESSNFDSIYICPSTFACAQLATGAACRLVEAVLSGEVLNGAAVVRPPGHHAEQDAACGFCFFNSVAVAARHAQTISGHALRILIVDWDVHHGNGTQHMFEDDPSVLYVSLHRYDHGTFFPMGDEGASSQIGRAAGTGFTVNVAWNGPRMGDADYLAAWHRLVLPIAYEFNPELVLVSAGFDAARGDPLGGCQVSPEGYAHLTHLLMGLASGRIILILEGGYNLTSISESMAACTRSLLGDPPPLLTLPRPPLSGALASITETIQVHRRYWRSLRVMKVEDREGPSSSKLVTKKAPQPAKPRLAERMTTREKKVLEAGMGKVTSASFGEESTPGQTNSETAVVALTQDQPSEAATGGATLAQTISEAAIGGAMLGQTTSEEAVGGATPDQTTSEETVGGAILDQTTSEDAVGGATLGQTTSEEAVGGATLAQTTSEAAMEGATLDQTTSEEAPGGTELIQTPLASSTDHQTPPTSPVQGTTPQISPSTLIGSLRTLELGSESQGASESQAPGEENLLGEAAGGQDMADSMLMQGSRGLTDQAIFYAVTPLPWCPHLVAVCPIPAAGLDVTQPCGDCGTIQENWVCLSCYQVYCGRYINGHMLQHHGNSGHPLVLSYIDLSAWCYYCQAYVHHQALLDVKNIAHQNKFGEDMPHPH

[2] = target: T2, Histone deacetylase 2 (Homo sapiens, UniProt Q92769); assay: Inhibition of human HDAC2 using p53 fluorogenic peptide (379 to 382 residues) RHKKAc as substrate by fluorescence-based assay
[3] = tested on: PC-3; assay: Antiproliferative activity against human PC3 cells incubated for 72 hrs by MTT assay; type: functional, cell-based; conditions: PC-3, 72 h
[4] = tested on: HCT-116; assay: Antiproliferative activity against human HCT116 cells incubated for 72 hrs by MTT assay; type: functional, cell-based; conditions: HCT-116, 72 h
[5] = target: T3, Histone deacetylase 1 (Homo sapiens, UniProt Q13547); assay: Inhibition of human HDAC1 using p53 fluorogenic peptide (379 to 382 residues) RHKKAc as substrate by fluorescence-based assay
[6] = target: T1, Protein deacetylase HDAC6; assay: Inhibition of recombinant human HDAC6 expressed in baculovirus infected sf9 cells using fluor-de-Lys-SIRT1 as substrate by fluorescence method
[7] = tested on: HEK293T; assay: Selectivity ratio of IC50 for Flag-tagged HDAC1 (unknown origin) expressed in 293T cells to IC50 for Flag-tagged HDAC6 (unknown origin) expressed in 293T cells; type: cell-based; conditions: Homo sapiens
[8] = target: T1, Protein deacetylase HDAC6; assay: Inhibition of Flag-tagged HDAC6 (unknown origin) expressed in 293T cells using ZMAL as substrate incubated for 180 mins by fluorescence method; design: species or system HEK293T
[9] = target: T2, Histone deacetylase 2; assay: Inhibition of HDAC2 (unknown origin)
[10] = target: Histone deacetylase 3 (Homo sapiens, UniProt O15379); assay: Inhibition of HDAC3 (unknown origin)
[11] = target: T4, Polyamine deacetylase HDAC10 (Homo sapiens, UniProt Q969S8); assay: Inhibition of HDAC10 (unknown origin)
T4 sequence (Q969S8 whole entry): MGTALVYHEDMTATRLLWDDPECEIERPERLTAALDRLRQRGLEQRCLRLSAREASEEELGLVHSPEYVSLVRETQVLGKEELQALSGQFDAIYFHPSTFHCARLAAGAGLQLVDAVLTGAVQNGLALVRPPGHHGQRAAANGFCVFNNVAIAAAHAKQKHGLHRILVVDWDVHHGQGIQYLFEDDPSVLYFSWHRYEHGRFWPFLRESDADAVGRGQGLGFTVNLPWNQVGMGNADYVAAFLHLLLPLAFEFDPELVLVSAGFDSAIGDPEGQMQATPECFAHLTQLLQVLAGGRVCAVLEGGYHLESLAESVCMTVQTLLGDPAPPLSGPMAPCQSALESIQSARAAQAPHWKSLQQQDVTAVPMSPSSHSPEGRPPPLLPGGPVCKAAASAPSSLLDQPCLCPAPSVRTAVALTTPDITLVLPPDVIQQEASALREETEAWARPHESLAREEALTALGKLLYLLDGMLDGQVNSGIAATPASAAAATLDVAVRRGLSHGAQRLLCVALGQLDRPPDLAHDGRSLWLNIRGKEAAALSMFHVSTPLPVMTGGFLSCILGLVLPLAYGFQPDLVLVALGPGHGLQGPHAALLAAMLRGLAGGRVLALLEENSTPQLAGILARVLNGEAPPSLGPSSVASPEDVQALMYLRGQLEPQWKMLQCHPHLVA

[12] = target: T5, Histone deacetylase 5 (Homo sapiens, UniProt Q9UQL6); assay: Inhibition of HDAC5 (unknown origin)
[13] = target: Histone deacetylase 11 (Homo sapiens, UniProt Q96DB2); assay: Inhibition of HDAC11 (unknown origin)
[14] = target: T3, Histone deacetylase 1; assay: Inhibition of HDAC1 (unknown origin)
[15] = target: Histone deacetylase 8 (Homo sapiens, UniProt Q9BY41); assay: Inhibition of HDAC8 (unknown origin)
[16] = target: T6, Histone deacetylase 4 (Homo sapiens, UniProt P56524); assay: Inhibition of HDAC4 (unknown origin)
[17] = target: T1, Protein deacetylase HDAC6; assay: Inhibition of HDAC6 (unknown origin)
[18] = target: Histone deacetylase 9 (Homo sapiens, UniProt Q9UKV0); assay: Inhibition of HDAC9 (unknown origin)
[19] = target: T4, Polyamine deacetylase HDAC10; assay: Inhibition of N-terminal Flag tagged- human HDAC10 (2 to 631 amino acids) expressed in baculovirus infected Sf9 cells using Fluor deLys substrate by fluorescence method
[20] = target: T6, Histone deacetylase 4; assay: Inhibition of human HDAC4 expressed in sf9 cells using Fluor deLys substrate by fluorescence method
[21] = target: T5, Histone deacetylase 5; assay: Inhibition of human HDAC5 using Fluor deLys substrate by fluorescence method
[22] = tested on: A2780; assay: Antiproliferative activity against human A2780 cells by MTT assay; type: functional, cell-based
[23] = tested on: CAL-27; assay: Antiproliferative activity against human Cal-27 cells by MTT assay; type: functional, cell-based
[24] = target: T3, Histone deacetylase 1; assay: Inhibition of human full-length recombinant HDAC1 using p53 fluorogenic peptide ([…] residues) (RHKK(Ac)) as substrate by fluorescence method
[25] = target: T1, Protein deacetylase HDAC6; assay: Inhibition of human full-length recombinant HDAC6 using fluorogenic peptide […] (RHKK(Ac)) as substrate by fluorescence method
[26] = target: T2, Histone deacetylase 2; assay: Inhibition of human full-length recombinant HDAC2 using fluorogenic peptide ([…] residues) (RHKK(Ac)) as substrate by fluorescence method
[27] = target: Histone deacetylase; assay: Inhibition of HDAC in human HeLa cell extracts using Fluor de lys as substrate incubated for 30 mins by fluorimetric analysis

T2 sequence (Q92769 whole entry, the tested form may be a part): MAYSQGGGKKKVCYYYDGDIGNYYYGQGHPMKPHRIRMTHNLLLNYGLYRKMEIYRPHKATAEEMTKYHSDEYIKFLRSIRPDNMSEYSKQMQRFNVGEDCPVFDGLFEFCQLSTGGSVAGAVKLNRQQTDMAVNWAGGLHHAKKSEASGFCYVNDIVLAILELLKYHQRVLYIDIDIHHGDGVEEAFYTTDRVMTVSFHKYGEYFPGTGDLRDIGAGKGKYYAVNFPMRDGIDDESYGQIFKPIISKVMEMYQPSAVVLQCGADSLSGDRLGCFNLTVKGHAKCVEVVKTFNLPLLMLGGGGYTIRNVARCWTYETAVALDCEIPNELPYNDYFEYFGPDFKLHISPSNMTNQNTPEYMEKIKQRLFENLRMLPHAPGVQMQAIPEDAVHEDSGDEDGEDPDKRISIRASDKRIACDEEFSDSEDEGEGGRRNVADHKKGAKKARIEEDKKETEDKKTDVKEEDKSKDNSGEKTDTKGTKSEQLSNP
T3 sequence (Q13547 whole entry, the tested form may be a part): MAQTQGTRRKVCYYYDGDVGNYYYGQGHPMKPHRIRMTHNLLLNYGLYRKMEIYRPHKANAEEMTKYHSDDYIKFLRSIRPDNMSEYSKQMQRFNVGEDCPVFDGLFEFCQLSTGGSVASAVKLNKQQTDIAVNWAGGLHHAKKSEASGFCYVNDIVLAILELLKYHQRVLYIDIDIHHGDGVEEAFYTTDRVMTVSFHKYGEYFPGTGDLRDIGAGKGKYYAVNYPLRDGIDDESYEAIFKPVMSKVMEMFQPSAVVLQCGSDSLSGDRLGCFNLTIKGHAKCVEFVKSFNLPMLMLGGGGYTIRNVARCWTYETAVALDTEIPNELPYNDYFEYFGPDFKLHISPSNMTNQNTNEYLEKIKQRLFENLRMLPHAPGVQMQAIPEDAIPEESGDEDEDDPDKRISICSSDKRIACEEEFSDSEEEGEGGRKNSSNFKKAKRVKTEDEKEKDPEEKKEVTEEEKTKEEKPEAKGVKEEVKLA
T5 sequence (Q9UQL6 whole entry): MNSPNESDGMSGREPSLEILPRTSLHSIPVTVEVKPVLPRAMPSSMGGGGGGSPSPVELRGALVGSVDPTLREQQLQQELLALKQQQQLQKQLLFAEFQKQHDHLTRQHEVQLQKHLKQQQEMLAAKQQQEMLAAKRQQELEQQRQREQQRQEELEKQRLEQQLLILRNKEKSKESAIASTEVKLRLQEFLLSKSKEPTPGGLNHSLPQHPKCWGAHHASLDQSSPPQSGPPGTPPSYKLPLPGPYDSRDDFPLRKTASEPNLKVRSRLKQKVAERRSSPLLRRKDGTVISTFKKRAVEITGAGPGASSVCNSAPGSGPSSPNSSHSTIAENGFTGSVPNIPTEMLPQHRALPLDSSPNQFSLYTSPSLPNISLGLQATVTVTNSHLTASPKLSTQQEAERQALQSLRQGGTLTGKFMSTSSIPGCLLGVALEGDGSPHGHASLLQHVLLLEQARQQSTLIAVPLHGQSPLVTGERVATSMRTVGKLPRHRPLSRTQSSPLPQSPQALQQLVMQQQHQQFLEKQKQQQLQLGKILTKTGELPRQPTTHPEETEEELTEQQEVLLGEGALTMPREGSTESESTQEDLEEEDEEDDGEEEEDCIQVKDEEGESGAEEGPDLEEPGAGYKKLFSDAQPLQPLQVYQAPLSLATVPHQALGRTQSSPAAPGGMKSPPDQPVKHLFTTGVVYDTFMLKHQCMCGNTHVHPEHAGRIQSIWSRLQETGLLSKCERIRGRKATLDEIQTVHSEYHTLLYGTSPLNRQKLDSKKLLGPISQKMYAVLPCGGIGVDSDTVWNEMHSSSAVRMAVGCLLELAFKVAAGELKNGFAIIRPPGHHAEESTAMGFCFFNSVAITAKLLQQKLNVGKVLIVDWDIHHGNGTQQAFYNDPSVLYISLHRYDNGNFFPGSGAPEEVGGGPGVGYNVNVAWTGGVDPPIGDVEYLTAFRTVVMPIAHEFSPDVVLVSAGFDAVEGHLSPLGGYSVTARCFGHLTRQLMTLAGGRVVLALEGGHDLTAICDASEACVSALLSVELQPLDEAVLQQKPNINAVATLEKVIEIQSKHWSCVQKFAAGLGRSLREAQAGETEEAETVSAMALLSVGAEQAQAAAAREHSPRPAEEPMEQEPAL
T6 sequence (P56524 whole entry): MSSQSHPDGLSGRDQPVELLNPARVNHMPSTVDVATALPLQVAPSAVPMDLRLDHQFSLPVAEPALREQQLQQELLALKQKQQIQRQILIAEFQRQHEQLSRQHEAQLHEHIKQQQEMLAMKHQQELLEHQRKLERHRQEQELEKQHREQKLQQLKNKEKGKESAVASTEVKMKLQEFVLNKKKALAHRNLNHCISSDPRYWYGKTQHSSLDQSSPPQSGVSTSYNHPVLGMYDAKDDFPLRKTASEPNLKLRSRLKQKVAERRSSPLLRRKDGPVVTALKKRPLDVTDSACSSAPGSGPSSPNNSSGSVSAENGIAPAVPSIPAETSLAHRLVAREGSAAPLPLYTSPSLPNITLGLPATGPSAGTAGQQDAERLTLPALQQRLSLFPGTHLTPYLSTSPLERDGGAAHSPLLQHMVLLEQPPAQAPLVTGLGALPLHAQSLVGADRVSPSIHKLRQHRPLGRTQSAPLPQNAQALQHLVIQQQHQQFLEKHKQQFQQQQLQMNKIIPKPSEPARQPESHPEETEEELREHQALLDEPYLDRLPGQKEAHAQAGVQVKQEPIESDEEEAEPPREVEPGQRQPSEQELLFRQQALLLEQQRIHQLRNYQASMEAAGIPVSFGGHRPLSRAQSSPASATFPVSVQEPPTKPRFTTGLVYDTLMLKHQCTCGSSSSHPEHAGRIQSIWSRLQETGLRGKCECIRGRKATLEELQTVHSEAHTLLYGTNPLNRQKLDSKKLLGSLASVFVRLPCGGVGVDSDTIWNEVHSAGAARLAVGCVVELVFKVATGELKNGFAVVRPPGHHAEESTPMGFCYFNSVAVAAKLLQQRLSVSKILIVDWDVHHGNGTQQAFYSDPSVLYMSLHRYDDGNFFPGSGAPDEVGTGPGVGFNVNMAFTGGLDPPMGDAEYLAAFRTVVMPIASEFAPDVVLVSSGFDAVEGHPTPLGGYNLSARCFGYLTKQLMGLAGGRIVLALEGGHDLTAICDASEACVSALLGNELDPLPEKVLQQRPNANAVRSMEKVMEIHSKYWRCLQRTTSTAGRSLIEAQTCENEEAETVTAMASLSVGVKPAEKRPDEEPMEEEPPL
Chain of Histone deacetylase 3 (O15379 whole entry): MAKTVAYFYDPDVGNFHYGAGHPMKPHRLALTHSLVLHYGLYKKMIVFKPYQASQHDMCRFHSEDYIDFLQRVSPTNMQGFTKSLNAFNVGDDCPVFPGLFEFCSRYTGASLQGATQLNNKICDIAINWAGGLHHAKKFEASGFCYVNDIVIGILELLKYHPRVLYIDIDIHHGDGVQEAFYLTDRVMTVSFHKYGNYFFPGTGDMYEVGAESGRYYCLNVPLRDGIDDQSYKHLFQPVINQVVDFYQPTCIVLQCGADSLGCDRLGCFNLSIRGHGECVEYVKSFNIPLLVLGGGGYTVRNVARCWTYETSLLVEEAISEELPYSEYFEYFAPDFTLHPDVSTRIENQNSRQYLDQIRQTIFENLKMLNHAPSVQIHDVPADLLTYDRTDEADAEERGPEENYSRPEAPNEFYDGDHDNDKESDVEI
Chain of Histone deacetylase 11 (Q96DB2 whole entry): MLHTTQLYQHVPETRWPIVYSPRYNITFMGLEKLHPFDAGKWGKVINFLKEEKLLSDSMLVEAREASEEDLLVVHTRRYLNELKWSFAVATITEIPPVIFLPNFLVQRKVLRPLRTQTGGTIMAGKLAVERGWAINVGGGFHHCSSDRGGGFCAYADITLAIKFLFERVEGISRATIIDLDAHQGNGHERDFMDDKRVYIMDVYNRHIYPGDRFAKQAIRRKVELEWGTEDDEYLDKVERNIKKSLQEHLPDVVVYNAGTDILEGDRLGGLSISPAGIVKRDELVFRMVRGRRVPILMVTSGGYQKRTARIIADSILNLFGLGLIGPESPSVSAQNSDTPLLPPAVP
Chain of Histone deacetylase 9 (Q9UKV0 whole entry, the tested form may be a part): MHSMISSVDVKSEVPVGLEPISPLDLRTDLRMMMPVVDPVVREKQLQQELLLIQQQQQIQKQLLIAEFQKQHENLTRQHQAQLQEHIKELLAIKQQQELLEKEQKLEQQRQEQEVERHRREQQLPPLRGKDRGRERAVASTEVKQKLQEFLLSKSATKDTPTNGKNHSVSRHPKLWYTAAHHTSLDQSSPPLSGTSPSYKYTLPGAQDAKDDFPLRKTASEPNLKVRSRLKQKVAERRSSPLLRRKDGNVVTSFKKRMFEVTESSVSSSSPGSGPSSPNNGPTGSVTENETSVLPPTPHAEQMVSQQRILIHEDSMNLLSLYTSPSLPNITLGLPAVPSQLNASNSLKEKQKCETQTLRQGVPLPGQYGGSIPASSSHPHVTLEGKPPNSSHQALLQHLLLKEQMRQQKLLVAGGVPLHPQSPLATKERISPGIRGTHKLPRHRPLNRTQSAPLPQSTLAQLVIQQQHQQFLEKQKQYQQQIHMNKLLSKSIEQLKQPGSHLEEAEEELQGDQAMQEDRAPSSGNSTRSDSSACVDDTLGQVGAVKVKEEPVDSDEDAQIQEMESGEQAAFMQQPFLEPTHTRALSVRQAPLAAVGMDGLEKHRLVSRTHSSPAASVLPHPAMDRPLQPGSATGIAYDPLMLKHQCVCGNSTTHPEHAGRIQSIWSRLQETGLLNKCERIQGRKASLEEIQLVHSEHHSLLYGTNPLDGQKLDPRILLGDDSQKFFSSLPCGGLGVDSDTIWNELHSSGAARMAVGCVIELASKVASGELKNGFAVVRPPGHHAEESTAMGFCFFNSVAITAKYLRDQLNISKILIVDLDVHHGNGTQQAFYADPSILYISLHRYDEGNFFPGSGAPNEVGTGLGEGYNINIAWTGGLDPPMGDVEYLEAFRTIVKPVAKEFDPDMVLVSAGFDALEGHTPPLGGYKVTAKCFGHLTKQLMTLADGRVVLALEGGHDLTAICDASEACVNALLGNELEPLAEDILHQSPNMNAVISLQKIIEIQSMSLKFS

Structure (SMILES): COc1cc(C(=O)OCCCCCCCOC(=O)c2ccc(O)c(OC)c2)ccc1O
IC50 [6]: 200 nM

Structure (SMILES): COC(=O)[C@@H](Cc1ccccn1)NC(=O)CCCCCCC(=O)NO
Ratio IC50 [7]: 20 | IC50 [8]: 4010 nM

Structure (SMILES): CN(C)c1cccc2c(S(=O)(=O)NCCCCCC(=O)NO)cccc12
IC50 [19]: 420 nM | IC50 [20]: 330 nM | IC50 [21]: 400 nM

Structure (SMILES): O=C(/C=C/c1cccn(CCCc2ccc3ccccc3c2)c1=O)NO
IC50 [24]: 19.4 nM | IC50 [25]: 2.46 nM | IC50 [26]: 128 nM | IC50 [27]: 70 nM

The next lines start with results.

IC50 [1]: 12.4 nM | IC50 [2]: 5500 nM | IC50 [3]: 11400 nM | IC50 [4]: 8080 nM | IC50 [5]: 1710 nM
Structure (SMILES): O=C(NO)c1ccc(Cn2c(=O)c(F)cn(C3CCCO3)c2=O)cc1 (centres undefined)

IC50 [9]: > 8000 nM | IC50 [10]: > 8000 nM | IC50 [11]: > 8000 nM | IC50 [12]: > 8000 nM | IC50 [13]: 2400 nM | IC50 [14]: > 8000 nM | IC50 [15]: 1100 nM | IC50 [16]: > 8000 nM | IC50 [17]: 8 nM | IC50 [18]: > 8000 nM
Structure (SMILES): O=C(NO)c1ccc(CN2c3ccccc3S(=O)(=O)C[C@@H]3CCCC[C@@H]32)cc1

IC50 [22]: 340 nM | IC50 [1]: 1.59 nM | IC50 [2]: 200 nM
Structure (SMILES): CN(C)c1ccc(C(=O)N(CC(=O)NC2CCCCC2)Cc2ccc(C(=O)NO)cc2)cc1
IC50 [23]: 2040 nM
